Reference: ChEMBL document CHEMBL5653631, “A Potent and Selective ULK1 Inhibitor Suppresses Autophagy and Sensitizes Cancer Cells to Nutrient Stress” (iScience, 2018)
Each block holds one compound with its values, some of them ahead of it.

Legend:
[1] = biological target: Dual specificity mitogen-activated protein kinase kinase 2 (Homo sapiens) (UniProt P36507); assay: Inhibition of human recombinant MAP2K2 at 500 nM related to control ULK1
[2] = biological target: Calcium/calmodulin-dependent protein kinase type 1B (Homo sapiens) (UniProt Q6P2M8); assay: Inhibition of human recombinant CaMK1b at 500 nM in presence of ATP by radiometric assay relative to control
[3] = biological target: Ribosomal protein S6 kinase alpha-5 (Homo sapiens) (UniProt O75582); assay: Inhibition of human recombinant MSK1 at 500 nM in presence of ATP by radiometric assay relative to control
[4] = biological target: Calcium/calmodulin-dependent protein kinase type II subunit delta (Homo sapiens) (UniProt Q13557); assay: Inhibition of human recombinant CaMK2d at 500 nM in presence of ATP by radiometric assay relative to control
Sequence of Calcium/calmodulin-dependent protein kinase type II subunit delta (Homo sapiens) (Q13557 whole entry): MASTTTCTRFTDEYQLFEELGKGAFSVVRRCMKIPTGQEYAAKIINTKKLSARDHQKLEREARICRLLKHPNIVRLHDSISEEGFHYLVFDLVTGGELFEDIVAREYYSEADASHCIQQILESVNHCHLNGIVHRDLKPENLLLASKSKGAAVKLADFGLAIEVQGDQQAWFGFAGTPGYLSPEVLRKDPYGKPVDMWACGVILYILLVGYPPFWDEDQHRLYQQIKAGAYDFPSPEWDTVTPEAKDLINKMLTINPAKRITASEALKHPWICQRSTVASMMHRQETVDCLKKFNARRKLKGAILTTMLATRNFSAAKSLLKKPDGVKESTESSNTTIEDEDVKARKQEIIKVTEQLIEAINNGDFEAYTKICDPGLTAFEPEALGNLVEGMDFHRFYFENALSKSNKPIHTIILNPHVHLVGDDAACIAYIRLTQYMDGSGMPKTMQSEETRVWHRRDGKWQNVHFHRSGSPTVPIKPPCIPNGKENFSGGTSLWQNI

[5] = biological target: High affinity nerve growth factor receptor (Homo sapiens) (UniProt P04629); assay: Inhibition of human recombinant TRKA at 500 nM in presence of ATP by radiometric assay relative to control
[6] = biological target: T1, cAMP-dependent protein kinase catalytic subunit PRKX (Homo sapiens) (UniProt P51817); assay: Inhibition of human recombinant PRKX at 500 nM related to control ULK1
T1 sequence (whole entry): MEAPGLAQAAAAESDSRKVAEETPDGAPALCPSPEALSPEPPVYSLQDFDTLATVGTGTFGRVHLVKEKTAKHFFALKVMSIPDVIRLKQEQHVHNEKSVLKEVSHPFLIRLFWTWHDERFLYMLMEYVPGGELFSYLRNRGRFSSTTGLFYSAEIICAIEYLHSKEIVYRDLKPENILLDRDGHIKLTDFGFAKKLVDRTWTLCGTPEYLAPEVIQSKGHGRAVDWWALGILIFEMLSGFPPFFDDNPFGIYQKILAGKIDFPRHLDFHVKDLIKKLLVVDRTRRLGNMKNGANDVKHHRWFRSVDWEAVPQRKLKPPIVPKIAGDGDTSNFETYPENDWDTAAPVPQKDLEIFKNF

[7] = biological target: Serine/threonine-protein kinase PLK3 (Homo sapiens) (UniProt Q9H4B4); assay: Inhibition of human recombinant PLK3 at 500 nM related to control ULK1
Sequence of Serine/threonine-protein kinase PLK3 (Homo sapiens) (Q9H4B4 whole entry, looked up): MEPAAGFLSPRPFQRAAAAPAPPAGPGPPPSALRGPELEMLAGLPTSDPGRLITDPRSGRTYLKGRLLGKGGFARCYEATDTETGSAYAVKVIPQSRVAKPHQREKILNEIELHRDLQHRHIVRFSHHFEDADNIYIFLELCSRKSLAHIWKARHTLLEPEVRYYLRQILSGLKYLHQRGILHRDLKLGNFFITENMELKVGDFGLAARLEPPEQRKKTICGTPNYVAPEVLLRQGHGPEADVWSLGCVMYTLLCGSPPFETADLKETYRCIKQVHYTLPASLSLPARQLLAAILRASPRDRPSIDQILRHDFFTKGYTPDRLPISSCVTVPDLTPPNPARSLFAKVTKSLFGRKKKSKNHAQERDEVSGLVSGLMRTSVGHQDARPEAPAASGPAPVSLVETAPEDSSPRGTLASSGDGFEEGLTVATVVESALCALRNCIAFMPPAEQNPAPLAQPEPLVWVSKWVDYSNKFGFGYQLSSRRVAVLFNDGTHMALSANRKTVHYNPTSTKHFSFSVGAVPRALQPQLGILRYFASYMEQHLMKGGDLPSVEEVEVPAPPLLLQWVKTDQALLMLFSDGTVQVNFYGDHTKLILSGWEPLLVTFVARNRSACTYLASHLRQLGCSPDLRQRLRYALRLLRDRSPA

[8] = biological target: Serine/threonine-protein kinase MRCK beta (Homo sapiens) (UniProt Q9Y5S2); assay: Inhibition of human recombinant MRCKb at 500 nM related to control ULK1
[9] = biological target: Ephrin type-A receptor 7 (Homo sapiens) (UniProt Q15375); assay: Inhibition of human recombinant EphA7 at 40 nM in presence of ATP by radiometric assay relative to control
[10] = biological target: Serine/threonine-protein kinase 35 (Homo sapiens) (UniProt Q8TDR2); assay: Inhibition of human recombinant CLIK1 at 40 nM related to control ULK1
Sequence of Serine/threonine-protein kinase 35 (Homo sapiens) (Q8TDR2 whole entry): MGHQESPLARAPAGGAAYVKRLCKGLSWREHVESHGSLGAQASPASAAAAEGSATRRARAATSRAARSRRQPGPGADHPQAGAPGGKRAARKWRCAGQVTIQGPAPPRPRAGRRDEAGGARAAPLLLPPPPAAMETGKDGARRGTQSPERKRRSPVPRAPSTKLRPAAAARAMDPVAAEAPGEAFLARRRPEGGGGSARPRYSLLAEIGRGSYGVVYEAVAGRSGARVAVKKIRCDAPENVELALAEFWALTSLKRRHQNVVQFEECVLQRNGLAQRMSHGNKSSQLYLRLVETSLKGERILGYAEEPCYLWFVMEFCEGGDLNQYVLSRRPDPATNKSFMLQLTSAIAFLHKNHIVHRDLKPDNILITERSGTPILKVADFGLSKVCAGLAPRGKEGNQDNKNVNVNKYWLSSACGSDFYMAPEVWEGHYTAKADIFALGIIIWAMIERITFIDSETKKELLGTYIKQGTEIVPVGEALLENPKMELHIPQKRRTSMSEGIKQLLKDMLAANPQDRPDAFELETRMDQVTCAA

[11] = biological target: T2, Myotonin-protein kinase (Homo sapiens) (UniProt Q09013); assay: Inhibition of human recombinant DMPK1 at 40 nM related to control ULK1
T2 sequence (whole entry): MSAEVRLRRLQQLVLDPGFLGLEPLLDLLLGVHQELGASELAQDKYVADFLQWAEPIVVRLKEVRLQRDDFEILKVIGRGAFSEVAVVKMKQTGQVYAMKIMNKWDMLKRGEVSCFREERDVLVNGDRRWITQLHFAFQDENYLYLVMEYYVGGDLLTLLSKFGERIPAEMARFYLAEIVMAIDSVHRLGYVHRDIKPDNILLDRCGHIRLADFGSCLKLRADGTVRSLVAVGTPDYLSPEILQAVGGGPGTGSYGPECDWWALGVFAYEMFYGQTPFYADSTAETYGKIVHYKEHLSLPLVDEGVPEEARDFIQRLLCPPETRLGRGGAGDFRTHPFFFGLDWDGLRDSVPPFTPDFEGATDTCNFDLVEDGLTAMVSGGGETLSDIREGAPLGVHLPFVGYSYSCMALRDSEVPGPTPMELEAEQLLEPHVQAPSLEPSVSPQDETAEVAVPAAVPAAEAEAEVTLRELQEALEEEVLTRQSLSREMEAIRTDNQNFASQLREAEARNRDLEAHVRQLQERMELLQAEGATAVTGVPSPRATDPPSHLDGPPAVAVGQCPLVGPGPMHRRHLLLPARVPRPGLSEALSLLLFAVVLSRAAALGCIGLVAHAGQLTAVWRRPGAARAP

[12] = biological target: Focal adhesion kinase 1 (Homo sapiens) (UniProt Q05397); assay: Inhibition of human recombinant FAK at 40 nM related to control ULK1
Sequence of Focal adhesion kinase 1 (Homo sapiens) (Q05397 2-1052 limits assumed): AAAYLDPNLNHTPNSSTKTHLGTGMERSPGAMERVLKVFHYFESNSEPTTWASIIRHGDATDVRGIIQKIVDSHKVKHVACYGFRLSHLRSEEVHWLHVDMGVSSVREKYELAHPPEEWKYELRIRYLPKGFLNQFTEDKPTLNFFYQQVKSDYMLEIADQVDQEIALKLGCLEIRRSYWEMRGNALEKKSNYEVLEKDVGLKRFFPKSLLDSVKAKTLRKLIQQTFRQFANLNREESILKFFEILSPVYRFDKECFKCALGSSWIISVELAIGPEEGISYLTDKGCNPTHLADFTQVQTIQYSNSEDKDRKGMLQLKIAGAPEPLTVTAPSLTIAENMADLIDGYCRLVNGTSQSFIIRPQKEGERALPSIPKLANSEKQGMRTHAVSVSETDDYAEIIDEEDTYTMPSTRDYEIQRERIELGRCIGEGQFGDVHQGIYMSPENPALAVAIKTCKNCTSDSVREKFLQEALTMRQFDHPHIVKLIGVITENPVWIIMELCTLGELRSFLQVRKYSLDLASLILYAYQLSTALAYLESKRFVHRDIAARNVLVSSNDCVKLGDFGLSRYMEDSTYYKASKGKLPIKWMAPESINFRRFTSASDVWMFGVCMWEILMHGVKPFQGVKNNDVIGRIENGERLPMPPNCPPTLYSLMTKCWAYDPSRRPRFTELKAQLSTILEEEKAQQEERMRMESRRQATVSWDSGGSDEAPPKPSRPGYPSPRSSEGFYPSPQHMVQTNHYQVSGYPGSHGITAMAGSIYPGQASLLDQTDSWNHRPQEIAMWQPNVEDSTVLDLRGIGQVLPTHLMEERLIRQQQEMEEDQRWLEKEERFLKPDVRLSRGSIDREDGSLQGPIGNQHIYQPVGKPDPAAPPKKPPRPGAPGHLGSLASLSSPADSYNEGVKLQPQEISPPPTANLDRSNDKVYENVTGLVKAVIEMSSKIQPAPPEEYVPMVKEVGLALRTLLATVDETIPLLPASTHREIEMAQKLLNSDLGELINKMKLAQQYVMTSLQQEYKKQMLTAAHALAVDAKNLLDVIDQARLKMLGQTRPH

[13] = biological target: Serine/threonine-protein kinase MARK2 (Homo sapiens) (UniProt Q7KZI7); assay: Inhibition of human recombinant MARK2 at 40 nM in presence of ATP by radiometric assay relative to control
[14] = biological target: Serine/threonine-protein kinase PLK2 (Homo sapiens) (UniProt Q9NYY3); assay: Inhibition of human recombinant PLK2 at 40 nM in presence of ATP by radiometric assay relative to control
Sequence of Serine/threonine-protein kinase PLK2 (Homo sapiens) (Q9NYY3 whole entry, looked up): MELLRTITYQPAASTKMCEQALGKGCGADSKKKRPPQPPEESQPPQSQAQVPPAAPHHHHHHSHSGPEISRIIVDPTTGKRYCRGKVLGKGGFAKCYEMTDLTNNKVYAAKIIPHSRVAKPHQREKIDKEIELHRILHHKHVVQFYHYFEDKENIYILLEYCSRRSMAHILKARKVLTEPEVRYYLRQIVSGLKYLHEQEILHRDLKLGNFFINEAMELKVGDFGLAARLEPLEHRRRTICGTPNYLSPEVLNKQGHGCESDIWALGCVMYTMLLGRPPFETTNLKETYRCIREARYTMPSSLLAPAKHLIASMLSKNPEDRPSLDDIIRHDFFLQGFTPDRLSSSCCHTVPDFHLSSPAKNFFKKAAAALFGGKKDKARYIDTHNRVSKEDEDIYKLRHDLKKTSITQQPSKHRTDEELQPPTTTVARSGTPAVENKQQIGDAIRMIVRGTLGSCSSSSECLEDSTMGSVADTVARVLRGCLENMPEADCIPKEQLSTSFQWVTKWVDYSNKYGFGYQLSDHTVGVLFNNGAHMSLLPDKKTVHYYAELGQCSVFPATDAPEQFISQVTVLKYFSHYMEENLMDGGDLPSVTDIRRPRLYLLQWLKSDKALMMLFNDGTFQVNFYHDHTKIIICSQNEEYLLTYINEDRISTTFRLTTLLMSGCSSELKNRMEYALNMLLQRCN

[15] = biological target: Serine/threonine-protein kinase PAK 3 (Homo sapiens) (UniProt O75914); assay: Inhibition of human recombinant PAK3 at 15 nM in presence of ATP by radiometric assay relative to control
[16] = biological target: Serine/threonine-protein kinase pim-1 (Homo sapiens) (UniProt P11309); assay: Inhibition of human recombinant PIM1 at 15 nM in presence of ATP by radiometric assay relative to control
Sequence of Serine/threonine-protein kinase pim-1 (Homo sapiens) (P11309 whole entry, looked up): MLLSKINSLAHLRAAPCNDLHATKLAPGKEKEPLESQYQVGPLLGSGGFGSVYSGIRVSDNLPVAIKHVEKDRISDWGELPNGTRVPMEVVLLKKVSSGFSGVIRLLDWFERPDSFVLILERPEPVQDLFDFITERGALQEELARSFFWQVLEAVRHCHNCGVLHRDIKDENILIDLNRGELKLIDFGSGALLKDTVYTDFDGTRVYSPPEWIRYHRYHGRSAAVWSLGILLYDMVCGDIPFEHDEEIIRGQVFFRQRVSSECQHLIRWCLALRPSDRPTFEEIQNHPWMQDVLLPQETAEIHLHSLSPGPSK

[17] = biological target: Casein kinase II subunit alpha (Homo sapiens) (UniProt P68400); assay: Inhibition of human recombinant CK2a1 at 15 nM in presence of ATP by radiometric assay relative to control
[18] = biological target: Protein kinase C delta type (Homo sapiens) (UniProt Q05655); assay: Inhibition of human recombinant PKCd at 15 nM related to control ULK1
Sequence of Protein kinase C delta type (Homo sapiens) (Q05655 whole entry, looked up): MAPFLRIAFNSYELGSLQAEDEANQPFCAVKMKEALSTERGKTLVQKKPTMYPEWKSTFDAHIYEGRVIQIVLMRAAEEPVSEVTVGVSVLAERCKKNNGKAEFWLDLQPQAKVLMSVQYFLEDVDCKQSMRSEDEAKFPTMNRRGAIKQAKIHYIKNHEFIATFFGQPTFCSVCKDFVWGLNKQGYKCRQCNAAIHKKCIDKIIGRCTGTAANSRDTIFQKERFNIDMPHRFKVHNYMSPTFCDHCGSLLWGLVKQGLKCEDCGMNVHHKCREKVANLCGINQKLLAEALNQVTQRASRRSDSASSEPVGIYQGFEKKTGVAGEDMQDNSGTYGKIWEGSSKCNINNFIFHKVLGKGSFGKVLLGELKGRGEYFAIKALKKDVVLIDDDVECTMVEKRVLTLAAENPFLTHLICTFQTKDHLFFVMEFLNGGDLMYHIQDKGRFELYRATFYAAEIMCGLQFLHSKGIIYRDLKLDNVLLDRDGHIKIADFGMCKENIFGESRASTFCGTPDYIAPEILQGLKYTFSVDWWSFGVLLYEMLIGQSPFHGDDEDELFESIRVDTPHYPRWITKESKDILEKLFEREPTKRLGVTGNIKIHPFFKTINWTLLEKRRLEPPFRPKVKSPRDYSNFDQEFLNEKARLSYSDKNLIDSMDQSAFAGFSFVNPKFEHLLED

[19] = biological target: Serine/threonine-protein kinase 33 (Homo sapiens) (UniProt Q9BYT3); assay: Inhibition of human recombinant STK33 at 15 nM related to control ULK1
[20] = biological target: MAP/microtubule affinity-regulating kinase 3 (Homo sapiens) (UniProt P27448); assay: Inhibition of human recombinant MARK3 at 15 nM related to control ULK1
[21] = biological target: Mitogen-activated protein kinase kinase kinase 10 (Homo sapiens) (UniProt Q02779); assay: Inhibition of human recombinant MLK2 at 15 nM in presence of ATP by radiometric assay relative to control

Sequence of Dual specificity mitogen-activated protein kinase kinase 2 (Homo sapiens) (P36507 whole entry): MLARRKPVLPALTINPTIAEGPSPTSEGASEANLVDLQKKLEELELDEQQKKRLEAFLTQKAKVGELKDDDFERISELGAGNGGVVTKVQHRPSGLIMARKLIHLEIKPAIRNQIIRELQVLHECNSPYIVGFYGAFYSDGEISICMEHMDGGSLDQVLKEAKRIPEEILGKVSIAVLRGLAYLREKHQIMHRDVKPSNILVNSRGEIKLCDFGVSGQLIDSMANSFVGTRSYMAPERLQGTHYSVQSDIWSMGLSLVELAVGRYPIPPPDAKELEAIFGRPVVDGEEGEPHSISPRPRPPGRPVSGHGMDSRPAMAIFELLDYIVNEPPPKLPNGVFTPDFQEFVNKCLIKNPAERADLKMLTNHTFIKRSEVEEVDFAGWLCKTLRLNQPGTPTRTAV

- fold change (FC) [1]: 0
- inhibition [2]: 0%
- inhibition [3]: 11%
- inhibition [4]: 9%
- inhibition [5]: 52%
- fold change (FC) [6]: 0.22
- fold change (FC) [7]: 0
- fold change (FC) [8]: 0
SMILES: CNC(=O)c1ccccc1Oc1nc(Nc2cc(OC)c(OC)c(OC)c2)ncc1Br

- inhibition [9]: 0%
- fold change (FC) [10]: 0.01
- fold change (FC) [11]: 0.07
- fold change (FC) [12]: 0
- inhibition [13]: 12%
- inhibition [14]: 3%
SMILES: O=C(N[C@@H](C1CC1)C(F)(F)F)c1cc(-c2cnn3cc(-c4ccc(F)cc4)cnc23)cs1

- inhibition [15]: 4%
- inhibition [16]: 14%
- inhibition [17]: 0%
- fold change (FC) [18]: 0
- fold change (FC) [19]: 0.18
- fold change (FC) [20]: 0.72
- inhibition [21]: 12%
SMILES: CC(C)[C@H](NC(=O)c1cc(-c2cnn3cc(-c4ccc(OCCN5CCCCC5)cc4)cnc23)cs1)C(F)(F)F
